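Method: 48-hour compound exposure of cells in 96-well plates, five concentrations, linear interpolation of endpoints. The concentration for 50% growth inhibition is given as GI50.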 Calls of active or inactive are those of the source. Rule as the data show it: active = GI50 up to about 1.1 µM and inactive = higher.
Tests used:
Assay in all cases: NCI anticancer screen, dose series, 48 h
786-0 = system: 786-0
A498 = system: A498
A549 = system: A549
ACHN = system: ACHN
CAKI-1 = system: CAKI-1
CCRF-CEM = system: CCRF-CEM
COLO 205 = system: COLO 205
DLD-1 = system: DLD-1
DMS-114 = system: DMS-114
DMS-273 = system: DMS-273
EKVX = system: EKVX
HCT-116 = system: HCT-116
HCT-15 = system: HCT-15
HL-60 = system: HL-60
HOP-18 = system: HOP-18
HOP-62 = system: HOP-62
HOP-92 = system: HOP-92
HT-29 = system: HT-29
K562 = system: K562
KM-20L2 = system: KM-20L2
KM12 = system: KM12
LOX IMVI = system: LOX IMVI
LXFL 529 = system: LXFL 529
M14 = system: M14
M19-MEL = system: M19-MEL
MOLT-4 = system: MOLT-4
Malme-3M = system: Malme-3M
NCI-H226 = system: NCI-H226
NCI-H460 = system: NCI-H460
NCI-H522 = system: NCI-H522
OVCAR-3 = system: OVCAR-3
OVCAR-4 = system: OVCAR-4
OVCAR-5 = system: OVCAR-5
OVCAR-8 = system: OVCAR-8
RPMI-8226 = system: RPMI-8226
RXF 393 = system: RXF 393
RXF 631 = system: RXF 631
SF-268 = system: SF-268
SF-295 = system: SF-295
SK-MEL-28 = system: SK-MEL-28
SK-MEL-2 = system: SK-MEL-2
SK-MEL-5 = system: SK-MEL-5
SK-OV-3 = system: SK-OV-3
SN12C = system: SN12C
SNB-19 = system: SNB-19
SNB-75 = system: SNB-75
SNB-78 = system: SNB-78
SR = system: SR
SW-620 = system: SW-620
TK-10 = system: TK-10
U-251 = system: U-251
UACC-257 = system: UACC-257
UACC-62 = system: UACC-62
UO-31 = system: UO-31
XF498 = system: XF498
HCC 2998 = system: HCC 2998
IGROV-1 = system: IGROV-1
NCI-H23 = system: NCI-H23
SF-539 = system: SF-539

## CC(=O)Oc1ccc(CO)cc1OC(C)=O
786-0
  GI50: > 100 µM (inactive)
A498
  GI50: > 100 µM (inactive)
A549
  GI50: > 100 µM (inactive)
ACHN
  GI50: > 100 µM (inactive)
CAKI-1
  GI50: > 100 µM (inactive)
CCRF-CEM
  GI50: 27.6 µM (inactive)
COLO 205
  GI50: > 100 µM (inactive)
DLD-1
  GI50: > 100 µM (inactive)
DMS-114
  GI50: 40.3 µM (inactive)
DMS-273
  GI50: > 100 µM (inactive)
EKVX
  GI50: 32.2 µM (inactive)
HCT-116
  GI50: > 100 µM (inactive)
HCT-15
  GI50: > 100 µM
HL-60
  GI50: 24.5 µM (inactive)
HOP-18
  GI50: > 100 µM (inactive)
HOP-62
  GI50: > 100 µM (inactive)
HOP-92
  GI50: > 100 µM (inactive)
HT-29
  GI50: > 100 µM (inactive)
K562
  GI50: 57.8 µM (inactive)
KM-20L2
  GI50: > 100 µM (inactive)
KM12
  GI50: > 100 µM (inactive)
LOX IMVI
  GI50: > 100 µM (inactive)
LXFL 529
  GI50: > 100 µM (inactive)
M14
  GI50: > 100 µM (inactive)
M19-MEL
  GI50: > 100 µM (inactive)
MOLT-4
  GI50: > 100 µM (inactive)
Malme-3M
  GI50: > 100 µM (inactive)
NCI-H226
  GI50: > 100 µM (inactive)
NCI-H460
  GI50: > 100 µM (inactive)
NCI-H522
  GI50: 36.3 µM (inactive)
OVCAR-3
  GI50: > 100 µM (inactive)
OVCAR-4
  GI50: > 100 µM (inactive)
OVCAR-5
  GI50: > 100 µM (inactive)
OVCAR-8
  GI50: > 100 µM (inactive)
RPMI-8226
  GI50: 51.6 µM (inactive)
RXF 393
  GI50: > 100 µM (inactive)
RXF 631
  GI50: 63.2 µM (inactive)
SF-268
  GI50: > 100 µM (inactive)
SF-295
  GI50: > 100 µM (inactive)
SK-MEL-28
  GI50: > 100 µM (inactive)
SK-MEL-2
  GI50: > 100 µM (inactive)
SK-MEL-5
  GI50: > 100 µM (inactive)
SK-OV-3
  GI50: > 100 µM (inactive)
SN12C
  GI50: > 100 µM (inactive)
SNB-19
  GI50: > 100 µM (inactive)
SNB-75
  GI50: > 100 µM (inactive)
SNB-78
  GI50: > 100 µM (inactive)
SR
  GI50: > 100 µM (inactive)
SW-620
  GI50: > 100 µM (inactive)
TK-10
  GI50: > 100 µM (inactive)
U-251
  GI50: > 100 µM (inactive)
UACC-257
  GI50: > 100 µM (inactive)
UACC-62
  GI50: > 100 µM (inactive)
UO-31
  GI50: > 100 µM (inactive)
XF498
  GI50: 92.9 µM (inactive)

## CCC1=CCN(c2cc(C)ccn2)OC1c1ccccc1 (stereo not given)
786-0
  GI50: 45.9 µM (inactive)
A549
  GI50: 40.1 µM (inactive)
ACHN
  GI50: 45.5 µM (inactive)
CAKI-1
  GI50: 66.1 µM (inactive)
CCRF-CEM
  GI50: 35.7 µM (inactive)
COLO 205
  GI50: 40.6 µM (inactive)
DLD-1
  GI50: 34 µM (inactive)
DMS-114
  GI50: 56.2 µM (inactive)
DMS-273
  GI50: 43.6 µM (inactive)
EKVX
  GI50: 56.4 µM (inactive)
HCC 2998
  GI50: 33.3 µM (inactive)
HCT-116
  GI50: 30.8 µM (inactive)
HCT-15
  GI50: 21.8 µM
HL-60
  GI50: 18.3 µM (inactive)
HOP-18
  GI50: > 100 µM (inactive)
HOP-62
  GI50: > 100 µM (inactive)
HT-29
  GI50: 29.3 µM (inactive)
IGROV-1
  GI50: 67.8 µM (inactive)
K562
  GI50: 47.4 µM (inactive)
KM-20L2
  GI50: 39.2 µM (inactive)
KM12
  GI50: 30.9 µM (inactive)
LOX IMVI
  GI50: 30.9 µM (inactive)
LXFL 529
  GI50: 27 µM (inactive)
M14
  GI50: 31.3 µM (inactive)
M19-MEL
  GI50: 34.4 µM (inactive)
MOLT-4
  GI50: 34.5 µM (inactive)
Malme-3M
  GI50: 26.5 µM (inactive)
NCI-H226
  GI50: > 100 µM (inactive)
NCI-H23
  GI50: 25.4 µM (inactive)
NCI-H460
  GI50: 38.4 µM (inactive)
NCI-H522
  GI50: 18.5 µM (inactive)
OVCAR-3
  GI50: 65.6 µM (inactive)
OVCAR-4
  GI50: 59.8 µM (inactive)
OVCAR-5
  GI50: > 100 µM (inactive)
OVCAR-8
  GI50: 53.1 µM (inactive)
RPMI-8226
  GI50: 19.1 µM (inactive)
RXF 393
  GI50: 29.3 µM (inactive)
RXF 631
  GI50: 25.4 µM (inactive)
SF-268
  GI50: 86.5 µM (inactive)
SF-295
  GI50: 39.3 µM (inactive)
SF-539
  GI50: > 100 µM (inactive)
SK-MEL-28
  GI50: 23.9 µM (inactive)
SK-MEL-2
  GI50: 21.4 µM (inactive)
SK-OV-3
  GI50: 71.3 µM (inactive)
SN12C
  GI50: 34.6 µM (inactive)
SNB-19
  GI50: 81.3 µM (inactive)
SNB-75
  GI50: 45.6 µM (inactive)
SNB-78
  GI50: 43.9 µM (inactive)
SR
  GI50: 21.1 µM (inactive)
SW-620
  GI50: 32.2 µM (inactive)
U-251
  GI50: 22.8 µM (inactive)
UACC-257
  GI50: 33.3 µM (inactive)
UACC-62
  GI50: 39.2 µM (inactive)
UO-31
  GI50: 50 µM (inactive)
XF498
  GI50: 22.9 µM (inactive)

Source: ChEMBL document CHEMBL1201862, “PubChem BioAssay data set” (2004)
